According to patent publication US20130217640A1 (priority 2010, published 2013):
≈ marks a conversion by molar mass, not a printed value.

What was measured:
[1] = Solution stability study at three pD's in phosphate buffered D2O, monitored by 1H NMR; assay type: physicochemical; conditions: 23° C.; for stability in solution (in words): pD 5.0, 6.0 and 7.0, phosphate buffered D2O, protected from light; for change in 1H NMR spectra: after 167 days, pD 5.0, 6.0, 7.0 in D2O
Experimental: 10 mL (11.07 g) D2O was placed in 3 separate vials with a stir bar and 0.002 moles (0.272 g) monobasic potassium phosphate (KH2PO4) was added to each. With the pD metered, NaOD/D2O was added drop-wise to each to adjust the pD's to 5.0, 6.0, and 7.0. Each of these solutions was gently boiled before use. Thus each vial contained […] phosphate buffered solution. […] The sample was sterilized by heating for 10 seconds, and after it had cooled down to ambient temperature (about 1 minute), 0.3 mL of one of the 0.2 mM 3 buffered solutions was added. The 0.6 mL sample was then placed in a sterilized NMR tube and the tube sealed and labeled. Each of the samples was stored at 23° C. protected from the light and monitored by ^1H NMR (64 scans for each sample) periodically.

[2] = Water solubility of the analogs (saturated D2O solution, 1H NMR against DSS standard); assay type: physicochemical; conditions: for water solubility (in words): D2O, Table 1
Experimental: The method use involved stirring the sample in D2O for a period of 3 days, followed by filtration using a 0.2μ syringe filter. A measured volume of this saturated solution was diluted with a standard solution of DSS in D2O, and a ^1H NMR was taken. Integration of the DSS peaks compared to that of the analog would allow for the determination of its concentration, and thus the concentration of the saturated solution.

[3] = Pharmacokinetics after intravenous administration: pro-drug and released acetaminophen in plasma or blood; assay type: in vivo, male Sprague-Dawley rats; conditions: for half-life: male, Sprague-Dawley, plasma, 66.3 umol/kg, read-out: half life (t1/2) of the pro-drug; for half-life / half-life of the pro-drug (in words) / AUC of the pro-drug (in words): target dose 66.3 μmol/Kg, Table 4

CC(=O)Nc1ccc(O[C@@H]2C=C[C@H](O)[C@@H](CO)O2)cc1 [Compound 1, N-(4-((2R,5S,6R)-5-hydroxy-6-(hydroxymethyl)-5,6-dihydro-2H-pyran-2-yloxy)phenyl)acetamide, reference compound]
stability in solution (in words) [1]: least stable to all of the pD's

CC(=O)Nc1ccc(O[C@H]2O[C@H](CO)[C@@H](OC3O[C@H](CO)[C@@H](O)[C@H](O)[C@H]3O)[C@H](O)[C@@H]2O)cc1 (stereo partly drawn) [Compound 5, 1-(4-acetaminophenoxy) 2-epi maltose]
water solubility (in words) [2]: highest solubility of all of the analogs
change in 1H NMR spectra [1]: no change

CC(=O)Nc1ccc(O[C@H]2O[C@H](CO)[C@@H](O)[C@H](O)[C@@H]2O)cc1 [Compound 8, N-(4-((2R,3S,4S,5S,6R)-3,4,5-trihydroxy-6-(hydroxymethyl)tetrahydro-2H-pyran-2-yloxy)phenyl)acetamide]
change in 1H NMR spectra [1]: no change
half-life ([3]; rat, intravenous): < 1 h
half-life of the pro-drug (in words) ([3]; rat, intravenous): relatively high half-lives

CC(=O)Nc1ccc(O[C@@H]2CC[C@H](O)[C@@H](CO)O2)cc1 [Compound 12, 1-(4′-acetamidophenoxy) 2,3-dideoxy glucose]
stability in solution (in words) [1]: showing a lot of instability

CC(=O)Nc1ccc(O[C@H]2O[C@H](COC(C)=O)[C@@H](O)[C@H](O)[C@@H]2O)cc1 [Compound 15]
half-life ([3]; rat, intravenous): < 1 h
AUC of acetaminophen released by the pro-drug (in words) ([3]; rat, intravenous, Table 5): largest AUC value of all of the pro-drugs
AUC of the pro-drug (in words) ([3]; rat, intravenous): low values for AUC
overall characteristics (water solubility, release of acetaminophen, AUC) ([3]; summary statement): best combination of water solubility, quick release of the acetaminophen, and AUC

CCCC(=O)OC[C@H]1O[C@H](Oc2ccc(NC(C)=O)cc2)C=C[C@@H]1O [Compound 16, 1-(4′-acetamidophenoxy)-6-O-butyryl-2,3-dideoxy 2,3-didehydro glucose]
water solubility (in words) [2]: excellent solubility

CCCC(=O)OC[C@H]1O[C@H](Oc2ccc(NC(C)=O)cc2)[C@@H](O)[C@@H](O)[C@@H]1O [Compound 18, 1-(4′-acetamidophenoxy)-6-O-butyrylmannose]
half-life ([3]; rat, intravenous): < 1 h
AUC of the pro-drug (in words) ([3]; rat, intravenous): low values for AUC

CC(=O)Nc1ccc(O[C@H]2O[C@H](COC(=O)C(C)C)[C@@H](O)[C@H](O)[C@@H]2O)cc1 [Compound 19, 1-(4′-acetamidophenoxy)-6-O-isobutyrylmannose]
half-life ([3]; rat, intravenous): < 1 h
AUC of the pro-drug (in words) ([3]; rat, intravenous): low values for AUC

CC(=O)Nc1ccc(O[C@H]2O[C@H](COC(=O)CCC(=O)O)[C@@H](O)[C@H](O)[C@@H]2O)cc1 [Compound 20]
AUC of the pro-drug (in words) ([3]; rat, intravenous): high AUC values
half-life of the pro-drug (in words) ([3]; rat, intravenous): relatively high half-lives

CC(=O)Nc1ccc(O[C@H]2O[C@H](C)[C@@H](O)[C@H](O)[C@@H]2O)cc1 [Compound 23, 1-(4′-acetamidophenoxy)-6-deoxymannose]
AUC of the pro-drug (in words) ([3]; rat, intravenous): high AUC values
half-life of the pro-drug (in words) ([3]; rat, intravenous): relatively high half-lives

CC(=O)Nc1ccc(O)cc1 [acetaminophen, reference compound]
water solubility ([2]; stirred in D2O for 3 days, filtered 0.2μ, 1H NMR integration vs DSS): 13 mg/mL (≈ 86 mM)
change in 1H NMR spectra [1]: no change
